Patent US20110251173A1, “CHEMICAL COMPOUNDS” (AstraZeneca AB, priority 2010, published 2011)

Target: T1, human DGAT1 (Homo sapiens, UniProt O75907)
T1 construct: made in house; host or cells: Sf9 insect cells (baculovirus), membrane fraction
T1 sequence (O75907 1-488): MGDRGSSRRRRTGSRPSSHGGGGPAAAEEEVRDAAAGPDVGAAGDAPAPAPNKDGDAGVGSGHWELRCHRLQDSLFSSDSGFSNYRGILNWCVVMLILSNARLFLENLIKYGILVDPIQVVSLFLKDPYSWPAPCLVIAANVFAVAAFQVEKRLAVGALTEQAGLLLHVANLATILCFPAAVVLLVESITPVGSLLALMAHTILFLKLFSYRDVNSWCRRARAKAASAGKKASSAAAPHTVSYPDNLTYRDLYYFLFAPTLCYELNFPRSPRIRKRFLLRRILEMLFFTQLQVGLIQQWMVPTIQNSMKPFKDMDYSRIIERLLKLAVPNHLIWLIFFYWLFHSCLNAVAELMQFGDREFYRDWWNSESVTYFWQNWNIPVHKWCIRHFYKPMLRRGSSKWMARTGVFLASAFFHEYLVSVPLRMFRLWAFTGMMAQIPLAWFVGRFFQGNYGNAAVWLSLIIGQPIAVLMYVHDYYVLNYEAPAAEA
Experiment: Human Enzyme Assay (DGAT1 inhibition, 14C oleoyl CoA incorporation into triolein)
Assay type: biochemical
Details: human DGAT1 expressed in sf9 insect cell membranes; Examples 5 to 24; rounded to 2 decimal places
Method: Briefly, sf9 cells were infected with recombinant baculovirus containing human DGAT1 coding sequences and harvested after 48 h. Cells were lysed by sonication and membranes isolated by centrifuging at 28000 rpm for 1 h at 4° C. on a 41% sucrose gradient. The membrane fraction at the interphase was collected, washed, and stored in liquid nitrogen.
The reaction was started by adding ^14C oleoyl coenzyme A (30 μM final concentration) and incubated at room temperature for 30 minutes. The reaction was stopped by adding 200 μl 2-propanol:heptane 7:1. Radioactive triolein product was separated into the organic phase by adding 300 μl heptane and 100 μl 0.1 M carbonate buffer pH 9.5. DGAT1 activity was quantified by counting aliquots of the upper heptane layer by liquid scintillography.

SMILES | IC50
N#Cc1cc(Cl)ccc1-c1ccc(N2CCOc3ncnc(N)c3C2=O)cc1 [Example 22, 4′-(4-Amino-5-oxo-7,8-dihydropyrimido[5,4-f][1,4]oxazepin-6(5H)-yl)-4-chlorobiphenyl-2-carbonitrile] | 0.05 µM
N#Cc1ccc(Cl)cc1-c1ccc(N2CCOc3ncnc(N)c3C2=O)cc1 [Example 14, 4′-(4-amino-5-oxo-7,8-dihydropyrimido[5,4-f][1,4]oxazepin-6(5H)-yl)-5-chlorobiphenyl-2-carbonitrile] | 0.1 µM
N#Cc1c(Cl)cccc1-c1ccc(N2CCOc3ncnc(N)c3C2=O)cc1 [Example 15, 4′-(4-amino-5-oxo-7,8-dihydropyrimido[5,4-f][1,4]oxazepin-6(5H)-yl)-3-chlorobiphenyl-2-carbonitrile] | 0.24 µM
Cc1c(Cl)cccc1-c1ccc(N2CCOc3ncnc(N)c3C2=O)cc1 [Example 6, 4-amino-6-(3′-chloro-2′-methylbiphenyl-4-yl)-7,8-dihydropyrimido[5,4-f][1,4]oxazepin-5(6H)-one] | 0.4 µM
Nc1ncnc2c1C(=O)N(c1ccc(-c3ccc(S(N)(=O)=O)cc3Cl)cc1)CCO2 [Example 18, 4′-(4-Amino-5-oxo-7,8-dihydropyrimido[5,4-f][1,4]oxazepin-6(5H)-yl)-2-chlorobiphenyl-4-sulfonamide] | 0.04 µM
Cc1cc(Cl)ccc1-c1ccc(N2CCOc3ncnc(N)c3C2=O)cc1 [Example 7, 4-amino-6-(4′-chloro-2′-methylbiphenyl-4-yl)-7,8-dihydropyrimido[5,4-f][1,4]oxazepin-5(6H)-one] | 0.08 µM
Cc1ccc(Cl)cc1-c1ccc(N2CCOc3ncnc(N)c3C2=O)cc1 [Example 8, 4-amino-6-(5′-chloro-2′-methylbiphenyl-4-yl)-7,8-dihydropyrimido[5,4-f][1,4]oxazepin-5(6H)-one] | 0.07 µM

Same assay, conditions: human DGAT1 expressed in sf9 insect cell membranes; Examples 25 to 59; rounded to 2 decimal places

SMILES | IC50
C[C@@H]1CN(c2ccc(-c3ccc(CS(C)(=O)=O)cc3Cl)cc2)C(=O)c2c(N)ncnc2O1 [Example 48, (R)-4-Amino-6-(2′-chloro-4′-(methylsulfonylmethyl)biphenyl-4-yl)-8-methyl-7,8-dihydropyrimido[5,4-f][1,4]oxazepin-5(6H)-one] | 0.06 µM
Nc1ncnc2c1C(=O)N(c1ccc(-c3cc(F)ccc3F)cc1)CCO2 [Example 26, 4-Amino-6-(2′,5′-difluorobiphenyl-4-yl)-7,8-dihydropyrimido[5,4-f][1,4]oxazepin-5(6H)-one] | 0.11 µM
Nc1ncnc2c1C(=O)N(c1ccc(-c3cccc(F)c3F)cc1)CCO2 [Example 25, 4-Amino-6-(2′,3′-difluorobiphenyl-4-yl)-7,8-dihydropyrimido[5,4-f][1,4]oxazepin-5(6H)-one] | 0.32 µM
Nc1ncnc2c1C(=O)N(c1ccc(-c3ccc(F)cc3F)cc1)CCO2 [Example 29, 4-Amino-6-(2′,4′-difluorobiphenyl-4-yl)-7,8-dihydropyrimido[5,4-f][1,4]oxazepin-5(6H)-one] | 0.06 µM
Cc1nc(N)c2c(n1)OCCN(c1ccc(-c3ccc(CNS(C)(=O)=O)cc3Cl)cc1)C2=O [Example 43, N-((4′-(4-amino-2-methyl-5-oxo-7,8-dihydropyrimido[5,4-f][1,4]oxazepin-6(5H)-yl)-2-chlorobiphenyl-4-yl)methyl)methanesulfonamide] | 0.1 µM
Nc1ncnc2c1C(=O)N(c1ccc(-c3ccc(Cl)cc3F)cc1)CCO2 [Example 27, 4-Amino-6-(4′-chloro-2′-fluorobiphenyl-4-yl)-7,8-dihydropyrimido[5,4-f][1,4]oxazepin-5(6H)-one] | 0.04 µM
C[C@@H]1CN(c2ccc(-c3ccccc3Cl)cc2)C(=O)c2c(N)ncnc2O1 [Example 44, (R)-4-Amino-6-(2′-chlorobiphenyl-4-yl)-8-methyl-7,8-dihydropyrimido[5,4-f][1,4]oxazepin-5(6H)-one] | 0.02 µM
C[C@@H]1CN(c2ccc(-c3c(F)cccc3F)cc2)C(=O)c2c(N)ncnc2O1 [Example 49, (R)-4-amino-6-(2′,6′-difluorobiphenyl-4-yl)-8-methyl-7,8-dihydropyrimido[5,4-f][1,4]oxazepin-5(6H)-one] | 0.02 µM
C[C@@H]1CN(c2ccc(-c3ccccc3F)cc2)C(=O)c2c(N)ncnc2O1 [Example 46, (R)-4-amino-6-(2′-fluorobiphenyl-4-yl)-8-methyl-7,8-dihydropyrimido[5,4-f][1,4]oxazepin-5(6H)-one] | 0.02 µM
C[C@@H]1CN(c2ccc(-c3ccc(CN(C)S(C)(=O)=O)cc3Cl)cc2)C(=O)c2c(N)ncnc2O1 [Example 47, (R)—N-((4′-(4-amino-8-methyl-5-oxo-7,8-dihydropyrimido[5,4-f][1,4]oxazepin-6(5H)-yl)-2-chlorobiphenyl-4-yl)methyl)-N-methylmethanesulfonamide] | 0.05 µM
Cc1nc(N)c2c(n1)OCCN(c1ccc(-c3ccccc3Cl)cc1)C2=O [Example 42, 4-Amino-6-(2′-chlorobiphenyl-4-yl)-2-methyl-7,8-dihydropyrimido[5,4-f][1,4]oxazepin-5(6H)-one] | 0.09 µM
C[C@@H]1CN(c2ccc(-c3ccc(CNS(C)(=O)=O)cc3Cl)cc2)C(=O)c2c(N)ncnc2O1 [Example 45, (R)—N-((4′-(4-amino-8-methyl-5-oxo-7,8-dihydropyrimido[5,4-f][1,4]oxazepin-6(5H)-yl)-2-chlorobiphenyl-4-yl)methyl)methanesulfonamide] | 0.06 µM
Nc1ncnc2c1C(=O)N(c1ccc(-c3cc(F)c(F)cc3F)cc1)CCO2 [Example 28, 4-Amino-6-(2′,4′,5′-trifluorobiphenyl-4-yl)-7,8-dihydropyrimido[5,4-f][1,4]oxazepin-5(6H)-one] | 0.13 µM

Further lines, results first:

IC50 | SMILES
0.01 µM | C[C@@H]1CN(c2ccc(-c3ccccc3Cl)c(F)c2)C(=O)c2c(N)ncnc2O1 [Example 55, (R)-4-Amino-6-(2′-chloro-2-fluorobiphenyl-4-yl)-8-methyl-7,8-dihydropyrimido[5,4-f][1,4]oxazepin-5(6H)-one]
0.04 µM | C[C@@H]1CN(c2ccc(-c3ccc(Cl)cc3C#N)c(F)c2)C(=O)c2c(N)ncnc2O1 [Example 50, (R)-4′-(4-Amino-8-methyl-5-oxo-7,8-dihydropyrimido[5,4-f][1,4]oxazepin-6(5H)-yl)-4-chloro-2′-fluorobiphenyl-2-carbonitrile]
0.02 µM | C[C@@H]1CN(c2ccc(-c3ccc(F)cc3F)c(F)c2)C(=O)c2c(N)ncnc2O1 [Example 53, (R)-4-Amino-8-methyl-6-(2,2′,4′-trifluorobiphenyl-4-yl)-7,8-dihydropyrimido[5,4-f][1,4]oxazepin-5(6H)-one]
0.02 µM | C[C@@H]1CN(c2ccc(-c3ccccc3Cl)c(C#N)c2)C(=O)c2c(N)ncnc2O1 [Example 59, (R)-4-(4-Amino-8-methyl-5-oxo-7,8-dihydropyrimido[5,4-f][1,4]oxazepin-6(5H)-yl)-2′-chlorobiphenyl-2-carbonitrile]
0.07 µM | C[C@@H]1CN(c2ccc(-c3c(Cl)cccc3C#N)c(F)c2)C(=O)c2c(N)ncnc2O1 [Example 52, 4′-((R)-4-Amino-8-methyl-5-oxo-7,8-dihydropyrimido[5,4-f][1,4]oxazepin-6(5H)-yl)-6-chloro-2′-fluorobiphenyl-2-carbonitrile]
0.02 µM | C[C@@H]1CN(c2ccc(-c3ccccc3F)c(F)c2)C(=O)c2c(N)ncnc2O1 [Example 54, (R)-4-Amino-6-(2,2′-difluorobiphenyl-4-yl)-8-methyl-7,8-dihydropyrimido[5,4-f][1,4]oxazepin-5(6H)-one]
0.02 µM | C[C@@H]1CN(c2ccc(-c3ccc(C#N)cc3Cl)c(F)c2)C(=O)c2c(N)ncnc2O1 [Example 51, (R)-4′-(4-Amino-8-methyl-5-oxo-7,8-dihydropyrimido[5,4-f][1,4]oxazepin-6(5H)-yl)-2-chloro-2′-fluorobiphenyl-4-carbonitrile]
0.02 µM | C[C@@H]1CN(c2ccc(-c3c(F)cccc3F)c(F)c2)C(=O)c2c(N)ncnc2O1 [Example 57, (R)-4-amino-8-methyl-6-(2,2′,6′-trifluorobiphenyl-4-yl)-7,8-dihydropyrimido[5,4-f][1,4]oxazepin-5(6H)-one]
0.01 µM | C[C@@H]1CN(c2ccc(-c3c(F)cccc3Cl)c(F)c2)C(=O)c2c(N)ncnc2O1 [Example 56, (8R)-4-amino-6-(2′-chloro-2,6′-difluorobiphenyl-4-yl)-8-methyl-7,8-dihydropyrimido[5,4-f][1,4]oxazepin-5(6H)-one]

Same assay, conditions: human DGAT1 expressed in sf9 insect cell membranes; usually mean of 2 measurements

SMILES | IC50
Nc1ncnc2c1C(=O)N(c1ccc(-c3ccc(S(N)(=O)=O)cc3Cl)cc1)CCO2 [Example 4, 4′-(4-Amino-5-oxo-7,8-dihydropyrimido[5,4-f][1,4]oxazepin-6(5H)-yl)-2-chlorobiphenyl-4-sulfonamide] | 0.035 µM
